In one assay the target is T1, cytochrome CYP3A4 enzyme (Homo sapiens, UniProt P08684).
T1 construct: purchased
Description: Inhibitory activity on cytochrome CYP3A4 enzyme (Vivid substrate, P450 BACULOSOMES, fluorescence). The following applies: 20 min pre-incubation, 30 min reaction, fluorescence at 460 nm; read-out: IC50 ± SD, inhibitory activity on CYP3A4 enzyme. It is filed as in vitro ADME. Here is the method: Measurement of inhibitory activity on cytochrome CYP3A4 enzyme vivid substrate and fluorescent standards were reconstituted and a standard curve was prepared. 40 µL of test samples at different concentrations diluted in 1% DMSO, positive inhibition control and solvent were added to each 96-well plate, then was added 50 µL of Master pre-mix consisting of P450 BACULOSOMES in vivid CYP 450, Reaction Buffer and Regeneration System (consisting of glucose-6-phosphate and glucose-6-phosphate dehydrogenase), and the plate was mixed and incubated for 20 min to allow samples to interact with the CYP3A4 enzyme. The reaction was started by addition of 10 µL reaction starting liquid including vivid substrate, NADP and Reaction Buffer mixture, and the fluorescence was recorded using a LAS-3000 luminescent image analyzer at a wavelength of 460 nm after 30 min duration of reaction. The inhibition rate was calculated using the equation: % inhibition = [1 − relative fluorescence units (rfu) in the presence of the test sample or positive inhibition control/rfu in the absence of the test compound or positive inhibition control] × 100.

The nature of assay [1]: DPPH free radical scavenging (antioxidant) assay. The following applies: DPPH in MeOH, 30 min at room temperature in the dark, absorbance at 517 nm, triplicate; read-out: IC50 ± SD, scavenging activity on DPPH free radicals. Here is the method:
Test samples (100 µL) at different concentrations in MeOH and DPPH (200 µL, […]) in MeOH were added to 96-well microtiter plates. The plate was shaken for 1 min by a plate shaker, and incubated for 30 min at room temperature in the dark. After incubation, the absorbance was recorded at 517 nm. The tested samples at different concentrations without DPPH solution were used as blank control to eliminate the influence of the sample color. Ascorbic acid was used as positive control, and DPPH solution in MeOH served as a negative control. All tests were independently performed in triplicate. DPPH radical scavenging activity (%) = [1 − (AbsS − AbsB)/AbsC] × 100%.
In general terms: Loss of DPPH colour is used to gauge radical scavenging.

Each structure is given as a SMILES string.

T1 sequence (P08684 whole entry): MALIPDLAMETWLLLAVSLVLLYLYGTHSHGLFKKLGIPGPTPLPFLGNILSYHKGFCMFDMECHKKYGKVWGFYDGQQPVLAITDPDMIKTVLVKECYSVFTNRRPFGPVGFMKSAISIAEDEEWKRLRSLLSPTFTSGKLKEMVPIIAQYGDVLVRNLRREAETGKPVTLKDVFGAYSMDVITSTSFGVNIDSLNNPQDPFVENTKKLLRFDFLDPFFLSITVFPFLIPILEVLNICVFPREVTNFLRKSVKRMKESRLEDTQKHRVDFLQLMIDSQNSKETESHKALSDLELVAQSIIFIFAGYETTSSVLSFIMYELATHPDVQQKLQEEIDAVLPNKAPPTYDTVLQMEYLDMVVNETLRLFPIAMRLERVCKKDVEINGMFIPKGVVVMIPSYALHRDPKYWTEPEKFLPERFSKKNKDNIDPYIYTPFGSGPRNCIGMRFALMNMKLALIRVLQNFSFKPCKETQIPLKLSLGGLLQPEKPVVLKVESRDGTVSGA

What is called IC50 is the point on the concentration scale where inhibition reaches its midpoint. In the case of `CC1OC(OC2C(O)C(OCCc3ccc(O)c(O)c3)OC(CO)C2OC(=O)C=Cc2ccc(O)c(O)c2)C(O)C(O)C1O` (stereo not shown) [Compound 1], the IC50 turned out to be 46.3 ± 1.53 µM at cytochrome CYP3A4 enzyme and 2.33 ± 0.06 µM in assay [1].

For `O=C1O[C@H]([C@@H](O)CO)C(O)=C1O` [Ascorbic acid, reference compound], in assay [1], the 50% inhibitory concentration (IC50) was determined as 3.08 ± 0.06 µM. With `C[C@@H]1O[C@@H](O[C@H]2[C@@H](O)[C@@H](CO)O[C@@H](OCCc3ccc(O)c(O)c3)[C@@H]2O)[C@H](O)[C@H](O)[C@H]1OC(=O)/C=C/c1ccc(O)c(O)c1` [Compound 5, 1'-O-β-(3,4-dihydroxyphenyl)-ethyl-[4′′-O-caffeoyl-(α-L-rhamnopyranosyl)]-(l-3′)-D-galactopyranoside], the values for the IC50 (at cytochrome CYP3A4 enzyme; in assay [1]) were 22.5 ± 1.65 µM and 0.12 ± 0.03 µM, respectively. Regarding `CC1OC(OC2C(O)C(CO)OC(OCCc3ccc(O)c(O)c3)C2O)C(O)C(O)C1OC(=O)C=Cc1ccc(O)c(O)c1` [Compound 6, 1′-O-β-(3,4-dihydroxyphenyl)-ethyl-[4′′-O-caffeoyl-(α-L-fucopyranosyl)]-(l-3′)-D-galactopyranoside], the IC50 on cytochrome CYP3A4 enzyme turned out to be 15.1 ± 2.43 µM; in assay [1] it was 0.24 ± 0.01 µM.

Regarding `CC1OC(OC2C(O)C(COC(=O)C=Cc3ccc(O)c(O)c3)OC(OCCc3ccc(O)c(O)c3)C2O)C(O)C(O)C1O` (stereo not shown) [Compound 4], the values for the IC50 (on cytochrome CYP3A4 enzyme; in assay [1]) were 91.7 ± 5.44 µM and 1.15 ± 0.04 µM, respectively.

With `CC1OC(OC2C(O)C(OCCc3ccc(O)c(O)c3)OC(CO)C2OC(=O)C=Cc2ccc(O)c(O)c2)C(O)C(O)C1O` [Compound 2, 1′-O-β-(3,4-dihydroxyphenyl)-ethyl-4′-O-caffeoyl-α-L-fucopyranosyl-(l-3′)-D-glucopyranoside], the IC50 at cytochrome CYP3A4 enzyme amounted to 43.3 ± 1.79 µM; in assay [1], 1 ± 0.02 µM. The matching figures for `CC1OC(OC2C(O)C(OCCc3ccc(O)c(O)c3)OC(CO)C2OC(=O)C=Cc2ccc(O)c(O)c2)C(O)C(O)C1O` (stereo not shown) [Compound 3]: 37.7 ± 2.11 µM and 0.66 ± 0.04 µM.

The values above are taken from PMC6270160, “Bioactive Phenylpropanoid Glycosides from Tabebuia avellanedae” (Molecules, 2013).
